Measured values: BindingDB's records for patent US20250115578 (Chengdu Kanghong Pharmaceutical, 2025)

Biological target: Sodium channel protein type 10 subunit alpha (Homo sapiens, UniProt Q9Y5Y9)
Assay: Electrophysiological Assay
Description: A capillary glass pipette (BF150-86-10, Sutter Instruments) was pulled into a recording electrode with a micropipette puller (P97, Sutter Instruments). The micromanipulator (MP285, Sutter Instruments) was manipulated under an inverted microscope (IX71, Olympus) to make the recording electrode contact the cell and negative pressure suction was applied to achieve a GQ seal. Then, rapid capacitance compensation was performed, and negative pressure was continued, cell membrane was broken by suction, and whole cell recording mode was formed. Then the slow capacitance was compensated and the membrane capacitance and series resistance were recorded without leakage compensation. When the whole cell recording current was stabilized, dosing was initiated, and the next concentration was detected after acting 5 minutes of each drug concentration. Multiple cells were independently repeated during the recording period. All electrophysiological assays were performed at room temperature. Specifically, 6 concentrations (measuring IC50) or 2 concentrations (preliminary screening) were set for each compound, and the percentage of inhibition of sodium channels was determined by calculating the relative percentage of peak current generated before and after each concentration compound treated cells, and the IC50 value or percentage of inhibition at a specific concentration was calculated using IGOR pro software.

Sodium channel protein type 10 subunit alpha, sequence (Q9Y5Y9 whole entry): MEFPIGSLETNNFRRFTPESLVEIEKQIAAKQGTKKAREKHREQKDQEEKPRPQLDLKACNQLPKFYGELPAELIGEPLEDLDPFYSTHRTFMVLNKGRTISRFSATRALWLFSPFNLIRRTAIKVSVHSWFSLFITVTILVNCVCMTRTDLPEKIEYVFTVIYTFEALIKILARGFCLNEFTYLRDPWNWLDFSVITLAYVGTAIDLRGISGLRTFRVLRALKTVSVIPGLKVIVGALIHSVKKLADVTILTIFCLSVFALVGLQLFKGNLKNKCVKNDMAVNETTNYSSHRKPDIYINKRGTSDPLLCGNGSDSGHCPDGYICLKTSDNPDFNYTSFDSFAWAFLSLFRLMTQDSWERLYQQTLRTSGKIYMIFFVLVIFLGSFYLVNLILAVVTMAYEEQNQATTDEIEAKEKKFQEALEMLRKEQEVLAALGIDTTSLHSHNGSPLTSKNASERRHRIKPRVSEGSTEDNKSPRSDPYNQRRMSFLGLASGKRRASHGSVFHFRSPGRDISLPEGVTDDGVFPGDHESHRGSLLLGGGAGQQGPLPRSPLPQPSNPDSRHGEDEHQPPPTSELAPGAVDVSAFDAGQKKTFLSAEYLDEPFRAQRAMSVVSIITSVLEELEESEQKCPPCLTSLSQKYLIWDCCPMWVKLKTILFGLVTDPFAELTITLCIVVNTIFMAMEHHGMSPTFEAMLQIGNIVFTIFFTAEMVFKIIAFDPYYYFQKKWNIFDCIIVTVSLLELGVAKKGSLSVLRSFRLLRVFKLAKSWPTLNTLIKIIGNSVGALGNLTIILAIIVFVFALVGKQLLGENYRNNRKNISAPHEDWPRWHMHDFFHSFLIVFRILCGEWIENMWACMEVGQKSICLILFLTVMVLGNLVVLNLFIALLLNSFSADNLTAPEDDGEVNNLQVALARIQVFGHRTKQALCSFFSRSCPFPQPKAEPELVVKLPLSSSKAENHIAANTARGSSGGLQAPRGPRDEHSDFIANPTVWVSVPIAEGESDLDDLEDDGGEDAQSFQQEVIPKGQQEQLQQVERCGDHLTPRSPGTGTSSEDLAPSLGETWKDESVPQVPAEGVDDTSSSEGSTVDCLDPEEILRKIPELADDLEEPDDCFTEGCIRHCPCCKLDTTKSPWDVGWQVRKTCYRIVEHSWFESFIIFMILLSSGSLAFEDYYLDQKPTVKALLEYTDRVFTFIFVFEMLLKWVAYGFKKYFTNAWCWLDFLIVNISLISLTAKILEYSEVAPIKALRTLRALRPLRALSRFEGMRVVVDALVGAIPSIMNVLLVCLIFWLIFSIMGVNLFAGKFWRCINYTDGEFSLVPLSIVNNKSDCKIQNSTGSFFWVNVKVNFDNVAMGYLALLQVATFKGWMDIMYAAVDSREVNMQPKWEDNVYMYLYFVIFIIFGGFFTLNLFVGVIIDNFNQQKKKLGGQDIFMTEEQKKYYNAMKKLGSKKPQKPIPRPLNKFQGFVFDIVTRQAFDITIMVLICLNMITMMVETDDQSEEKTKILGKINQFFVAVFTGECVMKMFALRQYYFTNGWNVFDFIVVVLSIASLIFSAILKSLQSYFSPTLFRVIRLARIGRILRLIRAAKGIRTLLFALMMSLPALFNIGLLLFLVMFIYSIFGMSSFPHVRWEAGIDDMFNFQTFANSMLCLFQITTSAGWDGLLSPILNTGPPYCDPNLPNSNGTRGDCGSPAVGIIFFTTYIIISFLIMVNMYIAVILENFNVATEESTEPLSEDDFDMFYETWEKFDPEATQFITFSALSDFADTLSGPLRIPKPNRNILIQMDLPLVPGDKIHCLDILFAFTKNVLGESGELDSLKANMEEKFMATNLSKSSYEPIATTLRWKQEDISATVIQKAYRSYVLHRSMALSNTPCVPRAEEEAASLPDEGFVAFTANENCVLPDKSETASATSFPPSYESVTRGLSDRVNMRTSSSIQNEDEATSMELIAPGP

IC50 [nM]	Compound
> 10	O=C(Nc1cc[nH]c(=O)c1)c1nc2ccccc2nc1N1CCCC(F)(F)CC1 [US20250115578, KH03]
66.7	O=C(Nc1cn[nH]c(=O)c1)c1nc2ccccc2nc1N1CCCC(F)(F)CC1 [US20250115578, KH04]
> 100	O=C(Nc1ccc[n+]([O-])c1)c1nc2ccccc2nc1N1CCCC(F)(F)CC1 [US20250115578, KH01]
